Our source for the PI3K isoform selectivity, IC50 and melting point values is patent US8772287B2, “Pyrimidinyl and 1,3,5-triazinyl benzimidazole sulfonamides and their use in cancer therapy” (VetDC, Inc., priority 2009, dated 2014).

For data set [1], the system named is PI3K. The note with it: reversible inhibitors, literature; cited from earlier work.
Data set [2] concerns the target p110α/p85 (Homo sapiens, UniProt P42336). In words: Inhibition of isolated enzyme p110α/p85 (lipid kinase, [γ-33P]ATP, TLC). The class given is biochemical. As to conditions: recombinant enzyme, 100 μM ATP, nine concentrations, average of two experiments. The procedure:
(§1) Compounds were evaluated for their ability to inhibit Class I PI 3-kinase enzymes p110δ/p85, p110α/p85, and p110β/p85. Reaction mixtures comprising 0.1 μg of a recombinant enzyme, 10 μg of L-α-phosphatidylinositol, and 2× Lipid Kinase Buffer (40 mM Tris-HCl, pH 7.4, 200 mM NaCl, 1 mM EDTA), which contains either DMSO only as a control or the test compound in DMSO (the final DMSO concentration is 1%), were activated by the addition of an ATP mix (5 mM MgCl2, 100 μM ATP, and 0.1 μL [γ^33P]ATP). Reactions were incubated at room temperature for 1 hr, and then stopped by the addition of 1M HCl. The lipids were then extracted using a two step procedure. Firstly, 200 μL of chloroform/methanol (1:1) was added, the biphasic reactions mixed and centrifuged briefly, and the inorganic phase was removed and discarded. Following this, 80 μL of methanol:HCl (1:1) was added and the same procedure followed. The organic phase (70 μL) was then transferred to a clean 1.6 mL tube and the reactions were dried using a Speedvac, with no heating, for 30 min. The reactions were spotted onto TLC plates (Merck Ltd) and developed for 1 hr in propanol-1:2 M acetic acid (13:7). The TLC plates were then dried at room temperature and quantified using a phosphorimager (StormImager, Amersham). Nine compound concentrations were used for each test compound to determine its IC50 value. Each experiment was performed twice and the average IC50 value is used herein.

Data set [3] addresses p110δ/p85 (Homo sapiens, UniProt O00329). Put plainly: Inhibition of isolated enzyme p110δ/p85 (lipid kinase, [γ-33P]ATP, TLC). The class given is biochemical. The note with it: recombinant enzyme, 100 μM ATP, nine concentrations, average of two experiments. On the procedure: as §1
The test system of data set [4] is NZB5. Put plainly: Cellular growth inhibition, NZB5 (3H-thymidine incorporation). In kind it is cell-based, human. On the procedure: (§2) The compounds were evaluated against two early passage human cell lines NZB5 and NZOV9 (Marshall et al., Oncol. Res. 2004, 14, 297). The cells were grown in ITS medium (α-modified minimal essential medium supplemented insulin, transferrin, selenite, and 5% fetal bovine serum) and grown on 96-well tissue culture plates under an atmosphere of 5% O2, 5% CO2, and 90% N2. Individual wells contained 500-1,000 cells (depending on the growth rate) in a volume of 150 μL. Compounds were added at 10-fold concentration steps to a maximum of 20 μM and plates were incubated for five days, with ^3H-thymidine being added over the last 6 hrs. Cells were harvested and incorporated radioactivity measured. Duplicate samples were analyzed for each compound dose with multiple control samples.
A general note: Dividing cells build labelled thymidine or BrdU into new DNA.

Data set [5] deals with NZOV9. In words: Cellular growth inhibition, NZOV9 (3H-thymidine incorporation). In kind it is cell-based, human. On the procedure:
as §2

The target of data set [6] is p110β/p85 (Homo sapiens, UniProt P42338). Put plainly: Inhibition of isolated enzyme p110β/p85 (lipid kinase, [γ-33P]ATP, TLC). The class given is biochemical. The note with it: recombinant enzyme, 100 μM ATP, nine concentrations, average of two experiments. On the procedure:
as §1

[7] abbreviates: Homo sapiens, NZB5, five days incubation, 3H-thymidine over the last 6 hrs, read-out: Cell IC50 NZB5.
[8] abbreviates: Homo sapiens, NZOV9, five days incubation, 3H-thymidine over the last 6 hrs, read-out: Cell IC50 NZOV9.
The mark [9] stands for this setting: Homo sapiens, NZB5, read-out: Cell IC50 NZB5.
The mark [10] stands for this setting: Homo sapiens, NZOV9, read-out: Cell IC50 NZOV9.

Where two headings read alike, the source gives them in different places.

Chain of p110α/p85 (P42336 whole entry): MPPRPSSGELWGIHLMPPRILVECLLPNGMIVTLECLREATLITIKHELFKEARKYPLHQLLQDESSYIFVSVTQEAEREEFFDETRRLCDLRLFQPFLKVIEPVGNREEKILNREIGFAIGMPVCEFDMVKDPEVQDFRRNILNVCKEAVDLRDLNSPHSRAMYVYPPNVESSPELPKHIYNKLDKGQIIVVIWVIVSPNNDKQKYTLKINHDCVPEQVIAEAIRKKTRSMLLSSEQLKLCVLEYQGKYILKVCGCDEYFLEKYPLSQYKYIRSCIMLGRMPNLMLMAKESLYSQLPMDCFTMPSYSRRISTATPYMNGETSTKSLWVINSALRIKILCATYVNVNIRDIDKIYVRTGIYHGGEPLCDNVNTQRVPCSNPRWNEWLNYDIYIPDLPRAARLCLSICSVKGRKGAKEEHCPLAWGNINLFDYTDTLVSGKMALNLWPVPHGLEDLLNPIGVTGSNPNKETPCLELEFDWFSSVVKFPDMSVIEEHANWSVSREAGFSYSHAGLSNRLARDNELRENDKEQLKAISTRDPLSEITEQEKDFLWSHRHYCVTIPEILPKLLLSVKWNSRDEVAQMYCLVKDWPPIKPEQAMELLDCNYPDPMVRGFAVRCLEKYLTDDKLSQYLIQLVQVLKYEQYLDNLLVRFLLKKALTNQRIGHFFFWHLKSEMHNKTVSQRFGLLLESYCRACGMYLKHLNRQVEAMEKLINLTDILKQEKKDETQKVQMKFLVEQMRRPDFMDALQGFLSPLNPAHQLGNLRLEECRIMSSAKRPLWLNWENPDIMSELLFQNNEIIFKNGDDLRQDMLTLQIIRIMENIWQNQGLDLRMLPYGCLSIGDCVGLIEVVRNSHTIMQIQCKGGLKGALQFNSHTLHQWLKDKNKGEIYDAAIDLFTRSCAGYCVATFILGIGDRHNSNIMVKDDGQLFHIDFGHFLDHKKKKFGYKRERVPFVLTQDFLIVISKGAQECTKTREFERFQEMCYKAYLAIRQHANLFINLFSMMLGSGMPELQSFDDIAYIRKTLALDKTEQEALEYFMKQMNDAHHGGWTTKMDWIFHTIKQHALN
Chain of p110α/p85 (P27986 whole entry partner): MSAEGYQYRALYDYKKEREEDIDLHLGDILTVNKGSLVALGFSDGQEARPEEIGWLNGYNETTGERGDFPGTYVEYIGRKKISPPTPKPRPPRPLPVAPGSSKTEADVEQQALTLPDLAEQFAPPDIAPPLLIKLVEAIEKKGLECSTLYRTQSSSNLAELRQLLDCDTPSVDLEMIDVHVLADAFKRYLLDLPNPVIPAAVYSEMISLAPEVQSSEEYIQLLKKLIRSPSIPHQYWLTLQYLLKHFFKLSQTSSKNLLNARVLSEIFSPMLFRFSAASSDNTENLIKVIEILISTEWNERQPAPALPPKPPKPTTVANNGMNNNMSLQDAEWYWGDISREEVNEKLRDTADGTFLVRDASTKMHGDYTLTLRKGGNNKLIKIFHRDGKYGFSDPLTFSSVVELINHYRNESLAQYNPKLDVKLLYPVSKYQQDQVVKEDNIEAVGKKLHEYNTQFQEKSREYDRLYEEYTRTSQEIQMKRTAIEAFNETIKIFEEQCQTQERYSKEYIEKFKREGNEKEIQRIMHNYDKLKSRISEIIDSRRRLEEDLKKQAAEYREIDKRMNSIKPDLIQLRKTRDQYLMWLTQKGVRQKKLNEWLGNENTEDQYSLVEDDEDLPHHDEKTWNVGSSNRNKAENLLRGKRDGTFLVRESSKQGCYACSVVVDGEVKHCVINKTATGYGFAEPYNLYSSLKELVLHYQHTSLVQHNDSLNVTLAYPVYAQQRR
Chain of p110β/p85 (P42338 whole entry, species assumed): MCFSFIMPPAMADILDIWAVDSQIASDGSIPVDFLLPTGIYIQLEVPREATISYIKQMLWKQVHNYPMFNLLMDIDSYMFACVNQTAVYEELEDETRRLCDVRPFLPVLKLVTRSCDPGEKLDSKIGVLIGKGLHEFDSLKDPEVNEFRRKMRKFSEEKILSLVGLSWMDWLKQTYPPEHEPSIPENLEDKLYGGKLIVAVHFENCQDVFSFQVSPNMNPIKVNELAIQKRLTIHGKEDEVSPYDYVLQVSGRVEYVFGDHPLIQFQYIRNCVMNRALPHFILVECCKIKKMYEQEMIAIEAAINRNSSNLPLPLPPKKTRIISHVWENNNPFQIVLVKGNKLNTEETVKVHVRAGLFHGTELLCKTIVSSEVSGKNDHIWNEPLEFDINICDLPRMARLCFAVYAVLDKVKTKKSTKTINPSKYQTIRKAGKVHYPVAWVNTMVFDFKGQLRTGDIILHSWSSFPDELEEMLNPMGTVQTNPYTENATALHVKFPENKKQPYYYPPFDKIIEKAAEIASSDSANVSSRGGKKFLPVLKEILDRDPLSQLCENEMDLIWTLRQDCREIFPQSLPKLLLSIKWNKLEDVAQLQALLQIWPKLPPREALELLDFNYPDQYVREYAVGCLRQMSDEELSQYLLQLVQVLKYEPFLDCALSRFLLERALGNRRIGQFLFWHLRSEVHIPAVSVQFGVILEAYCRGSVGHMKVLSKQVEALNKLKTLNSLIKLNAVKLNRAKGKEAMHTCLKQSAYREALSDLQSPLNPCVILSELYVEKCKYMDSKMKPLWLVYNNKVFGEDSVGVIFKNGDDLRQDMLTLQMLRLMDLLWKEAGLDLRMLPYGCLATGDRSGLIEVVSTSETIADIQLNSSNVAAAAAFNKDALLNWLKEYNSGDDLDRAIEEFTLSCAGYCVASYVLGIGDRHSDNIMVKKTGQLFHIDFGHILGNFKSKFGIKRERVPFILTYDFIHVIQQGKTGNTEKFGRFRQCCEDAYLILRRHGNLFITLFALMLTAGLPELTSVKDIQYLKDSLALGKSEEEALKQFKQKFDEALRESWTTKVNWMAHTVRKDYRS
Chain of p110β/p85 (P27986 whole entry partner, species assumed): as the sequence (P27986 whole entry partner) above
Chain of p110δ/p85 (O00329 whole entry, species assumed): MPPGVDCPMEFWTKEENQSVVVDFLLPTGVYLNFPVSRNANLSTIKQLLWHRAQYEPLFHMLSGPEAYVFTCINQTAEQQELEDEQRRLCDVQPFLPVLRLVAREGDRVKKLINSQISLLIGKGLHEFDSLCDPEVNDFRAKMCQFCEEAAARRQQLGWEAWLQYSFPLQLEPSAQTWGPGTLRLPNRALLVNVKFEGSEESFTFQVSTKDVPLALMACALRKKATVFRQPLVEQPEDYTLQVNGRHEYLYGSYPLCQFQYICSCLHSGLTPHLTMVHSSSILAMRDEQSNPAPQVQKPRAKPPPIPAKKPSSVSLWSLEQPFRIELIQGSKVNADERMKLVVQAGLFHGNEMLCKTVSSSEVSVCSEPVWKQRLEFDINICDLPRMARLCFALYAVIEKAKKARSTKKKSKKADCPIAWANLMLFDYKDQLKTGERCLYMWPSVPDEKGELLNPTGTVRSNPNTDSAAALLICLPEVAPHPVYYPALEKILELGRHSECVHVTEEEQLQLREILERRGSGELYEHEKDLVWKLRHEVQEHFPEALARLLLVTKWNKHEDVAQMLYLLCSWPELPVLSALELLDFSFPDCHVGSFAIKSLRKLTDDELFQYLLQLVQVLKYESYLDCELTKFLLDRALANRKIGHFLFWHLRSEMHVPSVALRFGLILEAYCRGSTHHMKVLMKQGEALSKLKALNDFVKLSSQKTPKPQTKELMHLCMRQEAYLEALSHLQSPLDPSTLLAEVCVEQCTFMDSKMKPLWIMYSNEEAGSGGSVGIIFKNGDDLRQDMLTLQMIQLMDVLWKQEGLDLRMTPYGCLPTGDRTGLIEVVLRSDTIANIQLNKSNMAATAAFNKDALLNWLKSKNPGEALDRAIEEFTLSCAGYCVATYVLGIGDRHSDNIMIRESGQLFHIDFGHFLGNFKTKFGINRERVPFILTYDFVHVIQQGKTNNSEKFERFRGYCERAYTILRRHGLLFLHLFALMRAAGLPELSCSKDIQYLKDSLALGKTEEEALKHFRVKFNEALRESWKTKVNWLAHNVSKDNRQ
Chain of p110δ/p85 (P27986 whole entry partner, species assumed): as the sequence (P27986 whole entry partner) above

Turning to `Oc1cccc(-c2nc(N3CCOCC3)c3oc4ncccc4c3n2)c1` [PI103], the PI3K isoform selectivity entry in data set [1] is “slightly α-selective”.

Take `COc1cccc2c1nc(C(F)F)n2-c1nc(Nc2ccc(NS(C)(=O)=O)nc2)nc(N2CCOCC2)n1` [Example 100, N-(5-{[4-[2-(difluoromethyl)-4-methoxy-1H-benzimidazol-1-yl]-6-(4-morpholinyl)-1,3,5-triazin-2-yl]amino}-2-pyridinyl)methanesulfonamide]: the melting point – broadly, the temperature, or range, at which the solid turns liquid – fell in the range of 302 to 306 °C. In addition, the IC50 – broadly, the concentration at which inhibition is half-maximal – in data set [2] was under 100 nM. Besides, the concentration for half-maximal inhibition (IC50) in data set [3] is under 100 nM. Further, the IC50 in data set [4] (setting [7]) fell in the range of 100 to 1000 nM. For the same molecule, in data set [5] (setting [8]), the IC50 was under 100 nM.

For `COc1cccc2c1nc(C(F)F)n2-c1nc(N2CCOCC2)nc(N2CCN(S(=O)(=O)C(F)(F)F)CC2)n1` [Example 86, 2-(difluoromethyl)-4-methoxy-1-(4-(4-morpholinyl)-6-{4-[(trifluoromethyl)-sulfonyl]-1-piperazinyl}-1,3,5-triazin-2-yl)-1H-benzimidazole], the melting point was 272 to 273 °C. The IC50 in data set [2] was in the range of 100 to 1000 nM. For the same molecule, the IC50 in data set [3] is over 1000 nM.

Consider `COc1cccc2c1nc(C(F)F)n2-c1nc(-c2ccc(S(=O)(=O)N3CCN(C)CC3)cc2)nc(N2CCOCC2)n1` [Example 95, 2-(difluoromethyl)-4-methoxy-1-[4-{4-[(4-methyl-1-piperazinyl)sulfonyl]phenyl}-6-(4-morpholinyl)-1,3,5-triazin-2-yl]-1H-benzimidazole], for which the IC50 in data set [3] is over 1000 nM.

As to `Cc1cc(C(C)Nc2ccccc2)c2nc(N3CCOCC3)cc(=O)n2c1` (stereo not drawn) [TGX221], the PI3K isoform selectivity entry in data set [1] is “β-selective”.

Consider `C=CS(=O)(=O)N1CCN(c2nc(N3CCOCC3)nc(-n3c(C(F)F)nc4c(OC)cccc43)n2)CC1` [Example 3, 2-(difluoromethyl)-4-methoxy-1-{4-(4-morpholinyl)-6-[4-(vinylsulfonyl)-1-piperazinyl]-1,3,5-triazin-2-yl}-1H-benzimidazole], for which the melting point lay within 242 to 244 °C. The IC50 in data set [2] was under 100 nM. Further, in data set [6], the IC50 is under 100 nM. Moreover, the IC50 in data set [3] is under 100 nM. In addition, in data set [4] (setting [7]), the IC50 lay within 100 to 1000 nM. For the same molecule, in data set [5] (setting [8]), the half-maximal inhibitory concentration (IC50) is under 100 nM.

`COc1cccc2c1nc(C(F)F)n2-c1nc(N2CCOCC2)nc(N2CCC(NS(=O)(=O)CCl)CC2)n1` [Example 61, chloro-N-{1-[4-[2-(difluoromethyl)-4-methoxy-1H-benzimidazol-1-yl]-6-(4-morpholinyl)-1,3,5-triazin-2-yl]-4-piperidinyl}methanesulfonamide] came in with a melting point of 230 to 232 °C. Besides, the IC50 in data set [2] is under 100 nM. In data set [3], the IC50 is under 100 nM.

`COc1cccc2c1nc(C(F)F)n2-c1nc(N2CCOCC2)cc(N(C)C2CCN(S(C)(=O)=O)CC2)n1` [Example 6, 2-[2-(difluoromethyl)-4-methoxy-1H-benzimidazol-1-yl]-N-methyl-N-[1-(methylsulfonyl)-4-piperidinyl]-6-(4-morpholinyl)-4-pyrimidinamine] registered a melting point of 191 to 193 °C. Moreover, the IC50 in data set [2] was under 100 nM. The IC50 in data set [6] was under 100 nM. Further, in data set [3], the IC50 was under 100 nM. Further, the IC50 in data set [4] (setting [7]) is 100 to 1000 nM. Further, the IC50 in data set [5] (setting [8]) was under 100 nM.

`CN(C)CCCOc1cccc2c1nc(C(F)F)n2-c1nc(OC2CCN(S(C)(=O)=O)CC2)nc(N2CCOCC2)n1` [Example 7, N-[3-({2-(difluoromethyl)-1-[4-{[1-(methylsulfonyl)-4-piperidinyl]oxy}-6-(4-morpholinyl)-1,3,5-triazin-2-yl]-1H-benzimidazol-4-yl}oxy)propyl]-N,N-dimethylamine]: the IC50 in data set [6] was over 1000 nM; in data set [4] (setting [7]), 100 to 1000 nM; in data set [5] (setting [8]) it was 100 to 1000 nM.

Consider `Cc1ccccc1-n1c(Cn2cnc3c(N)ncnc32)nc2cccc(C)c2c1=O` [IC87114], for which the PI3K isoform selectivity result in data set [1] is “δ-selective”.

`COc1cccc2c1nc(C(F)F)n2-c1nc(N2CCOCC2)nc(N2CCC(NS(=O)(=O)C(F)(F)F)CC2)n1` [Example 87, N-{1-[4-[2-(difluoromethyl)-4-methoxy-1H-benzimidazol-1-yl]-6-(4-morpholinyl)-1,3,5-triazin-2-yl]-4-piperidinyl}trifluoromethanesulfonamide]: the melting point fell in the range of 282 to 285 °C. In data set [2], the IC50 was under 100 nM. Also, in data set [3], the IC50 lay in the range of 100 to 1000 nM.

`FC(F)c1nc2ccccc2n1-c1nc(N2CCOCC2)nc(N2CCOCC2)n1` [ZSTK474]: the PI3K isoform selectivity entry in data set [1] was “non-selective”.

Take “N-{(3S)-1-[4-[2-(difluoromethyl)-4-methoxy-1H-benzimidazol-1-yl]-6-(4-morpholinyl)-1,3,5-triazin-2-yl]piperidinyl}-N-[3-(dimethylamino)propyl]methane-sulfonamide [Example 63]”: the IC50 in data set [2] was 100 to 1000 nM; in data set [6], over 1000 nM; in data set [3], 100 to 1000 nM; in data set [4] (five days incubation, 3H-thymidine over the last 6 hrs, read-out: Cell IC50 NZB5), 100 to 1000 nM; in data set [5] (five days incubation, 3H-thymidine over the last 6 hrs, read-out: Cell IC50 NZOV9) it was 100 to 1000 nM.

In the case of `COc1cccc2c1nc(C(F)F)n2-c1nc(N2CCOCC2)nc(N2CC(NS(=O)(=O)C(F)(F)F)C2)n1` [Example 88, N-{1-[4-[2-(difluoromethyl)-4-methoxy-1H-benzimidazol-1-yl]-6-(4-morpholinyl)-1,3,5-triazin-2-yl]-3-azetidinyl}(trifluoro)methanesulfonamide], the IC50 in data set [2] is under 100 nM; in data set [3], 100 to 1000 nM.

For the molecule `COc1cccc2c1nc(C(F)F)n2-c1nc(Nc2ccc(N(C)S(C)(=O)=O)nc2)nc(N2CCOCC2)n1` [Example 101, N-(5-{[4-[2-(difluoromethyl)-4-methoxy-1H-benzimidazol-1-yl]-6-(4-morpholinyl)-1,3,5-triazin-2-yl]amino}-2-pyridinyl)-N-methylmethanesulfonamide], the melting point is 250 to 253 °C. For the same molecule, the concentration for half-maximal inhibition (IC50) in data set [2] was under 100 nM. In addition, the IC50 in data set [6] fell in the range of 100 to 1000 nM. Further, the 50% inhibitory concentration (IC50) in data set [3] is under 100 nM. Also, the IC50 in data set [4] (setting [7]) was under 100 nM. The 50% inhibitory concentration (IC50) in data set [5] (setting [8]) is under 100 nM.

Take `COc1cccc2c1nc(C(F)F)n2-c1nc(N2CCOCC2)nc(N(CCCN(C)C)C2CCN(S(=O)(=O)CCl)CC2)n1` [Example 59, N^1-{1-[(chloromethyl)sulfonyl]-4-piperidinyl}-N^1-[4-[2-(difluoromethyl)-4-methoxy-1H-benzimidazol-1-yl]-6-(4-morpholinyl)-1,3,5-triazin-2-yl]-N^3,N^3-dimethyl-1,3-propanediamine]: in data set [6], the IC50 was over 1000 nM.

In turn, `COc1cccc2c1nc(C(F)F)n2-c1nc(N2CCOCC2)nc(N2CCCC(NS(C)(=O)=O)C2)n1` (stereo in doubt) [Example 44, N-{(3R)-1-[4-[2-(difluoromethyl)-4-methoxy-1H-benzimidazol-1-yl]-6-(4-morpholinyl)-1,3,5-triazin-2-yl]piperidinyl}methanesulfonamide] came in with a melting point of 220 to 221 °C. Further, the IC50 in data set [4] (setting [9]) fell in the range of 100 to 1000 nM. Besides, in data set [5] (setting [10]), the IC50 is under 100 nM.

With `COc1cccc2c1nc(C(F)F)n2-c1nc(N[C@H]2CCCN(S(C)(=O)=O)C2)nc(N2CCOCC2)n1` [Example 42, 4-[2-(difluoromethyl)-4-methoxy-1H-benzimidazol-1-yl]-N-[(3S)-1-(methylsulfonyl)piperidinyl]-6-(4-morpholinyl)-1,3,5-triazin-2-amine], the melting point lay within 239 to 241 °C. The IC50 in data set [4] (read-out: Cell IC50 NZB5, five days incubation, 3H-thymidine over the last 6 hrs) is 100 to 1000 nM. Also, in data set [5] (read-out: Cell IC50 NZOV9, five days incubation, 3H-thymidine over the last 6 hrs), the IC50 is under 100 nM.

In the case of `COc1cccc2c1nc(C(F)F)n2-c1nc(N2CCOCC2)nc(N(C)[C@@H]2CCN(S(C)(=O)=O)C2)n1` [Example 33, 4-[2-(difluoromethyl)-4-methoxy-1H-benzimidazol-1-yl]-N-methyl-N-[(3R)-1-(methylsulfonyl)pyrrolidinyl]-6-(4-morpholinyl)-1,3,5-triazin-2-amine], the melting point lay in the range of 238 to 240 °C. Also, in data set [4] (setting [9]), the 50% inhibitory concentration (IC50) was under 100 nM. Also, the IC50 in data set [5] (setting [10]) was under 100 nM.
